Results published in ChEMBL document CHEMBL1806432, “Cytotoxic diterpenoid quinonemethides from the roots of Pygmacopremna herbacea” (Bioorg Med Chem Lett, 2011).
In brackets after ≈: the same amount, converted by molar mass.

Assays:
Type in all cases: functional, cell-based
PC-3 = assay: Cytotoxicity against human PC3 cells after 48 hrs by MTT assay; conditions: PC-3, 48 h
HeLa = assay: Cytotoxicity against human HeLa cells after 48 hrs by MTT assay
MCF7 = assay: Cytotoxicity against human MCF7 cells after 48 hrs by MTT assay; conditions: MCF7, 48 h
HepG2 = assay: Cytotoxicity against human HepG2 cells after 48 hrs by MTT assay; conditions: HepG2, 48 h
A549 = assay: Cytotoxicity against human A549 cells after 48 hrs by MTT assay; conditions: A549, 48 h

Compound | IC50 (PC-3) | IC50 (HeLa) | IC50 (MCF7) | IC50 (HepG2) | IC50 (A549)
CC(C)C1=CC2=CC=C3C(C)(C)CC(=O)C[C@@]3(C)C2=C(O)C1=O | 1.7 µg/mL (≈ 5.44 µM) | 15.6 µg/mL (≈ 49.9 µM) | 27.6 µg/mL (≈ 88.3 µM) | 38.2 µg/mL (≈ 122 µM) | 17.6 µg/mL (≈ 56.3 µM)
CC(C)C1=CC2=CC=C3C(C)(C)CC(=O)O[C@@]3(C)CC2=C(O)C1=O [BHARANGIN] | 2.95 µg/mL (≈ 8.98 µM) | 14.1 µg/mL (≈ 42.9 µM) | 0.006 µg/mL (≈ 0.0183 µM) | 14.3 µg/mL (≈ 43.5 µM) | 2.03 µg/mL (≈ 6.18 µM)
COc1cccc2c1C(=O)c1c(O)c3c(c(O)c1C2=O)C[C@@](O)(C(=O)CO)C[C@@H]3O[C@H]1C[C@H](N)[C@H](O)[C@H](C)O1 [DOXORUBICIN] | 2.3 µg/mL (≈ 4.23 µM) | 0.24 µg/mL (≈ 0.442 µM) | – | 1.6 µg/mL (≈ 2.94 µM) | 0.51 µg/mL (≈ 0.938 µM)
CC(C)C1=CC2=CC=C3C(C)(C)[C@@H](O)C(=O)C[C@]3(C)C2=C(O)C1=O [ISOBHARANGIN] | 62.2 µg/mL (≈ 189 µM) | 103 µg/mL (≈ 315 µM) | 28.2 µg/mL (≈ 85.9 µM) | 6.29 µg/mL (≈ 19.2 µM) | 24.1 µg/mL (≈ 73.4 µM)
CC(C)C1=CC2=CC=C3C(C)(C)COC(=O)[C@@]3(C)CC2=C(O)C1=O [NEOBHARANGIN] | 48.6 µg/mL (≈ 148 µM) | 104 µg/mL (≈ 318 µM) | 0.39 µg/mL (≈ 1.19 µM) | 13 µg/mL (≈ 39.6 µM) | 2.61 µg/mL (≈ 7.95 µM)
